Legend:
[1] = xn = mol fraction of the nth substance listed; conditions: 101 kPa, Liquid, Vibrating tube method, x2 = 0
[2] = 101 kPa, Liquid, Vibrating tube method

C[S+](C)[O-] [dimethyl sulfoxide] + CN(CCO)CCO
[1]
Conditions | mass density [kg/m3]
293.14 K | 1100.87
303.15 K | 1090.81
313.14 K | 1080.77
323.14 K | 1070.73
333.15 K | 1060.68
343.14 K | 1050.62
353.14 K | 1040.54
363.15 K | 1030.43

OCCNCCO [diethanolamine]
[2]
Conditions | mass density [kg/m3]
293.15 K | 1097.61
303.15 K | 1091.17
313.15 K | 1084.6
323.15 K | 1077.88
333.14 K | 1071.11
343.14 K | 1064.25
353.14 K | 1057.31
363.15 K | 1050.24

C[S+](C)[O-] [dimethyl sulfoxide]
[2]
Conditions | mass density [kg/m3]
293.14 K | 1100.87
303.15 K | 1090.81
313.14 K | 1080.77
323.14 K | 1070.73
333.15 K | 1060.68
343.14 K | 1050.62
353.14 K | 1040.54
363.15 K | 1030.43

CN(CCO)CCO [N-methyldiethanolamine]
[2]
Conditions | mass density [kg/m3]
293.15 K | 1040.6
303.15 K | 1033.02
313.15 K | 1025.4
323.15 K | 1017.74
333.15 K | 1010.03
343.15 K | 1002.25
353.14 K | 994.404
363.15 K | 986.471

NCCO [2-aminoethan-1-ol]
[2]
Conditions | mass density [kg/m3]
293.16 K | 1016.34
303.14 K | 1008.4
313.14 K | 1000.41
323.15 K | 992.384
333.14 K | 984.302
343.14 K | 976.141
353.14 K | 967.893
363.15 K | 959.536

C[S+](C)[O-] [dimethyl sulfoxide] + OCCNCCO
[1]
Conditions | mass density [kg/m3]
293.14 K | 1100.87
303.15 K | 1090.81
313.14 K | 1080.77
323.14 K | 1070.73
333.15 K | 1060.68
343.14 K | 1050.62
353.14 K | 1040.54
363.15 K | 1030.43

C[S+](C)[O-] [dimethyl sulfoxide] + NCCO
[1]
Conditions | mass density [kg/m3]
293.14 K | 1100.87
303.15 K | 1090.81
313.14 K | 1080.77
323.14 K | 1070.73
333.15 K | 1060.68
343.14 K | 1050.62
353.14 K | 1040.54
363.15 K | 1030.43

From the NIST ThermoML archive (doi:10.1016/j.jct.2012.08.021)
